Values joined by “and” are separate entries in the source; they are usually repeats but may differ in a detail not shown here. Equal values may be shown once.
Legend:
[1] = for Triple point temperature: DSC
[2] = molar heat capacity at constant pressure; conditions: 100 kPa, Extra sensitive DSC
[3] = Molar enthalpy of transition or fusion; conditions: DSC

CC(C)[C@@H]1CC[C@@H](C)C[C@H]1O (racemic) [DL-menthol]
Conditions | molar heat capacity at constant pressure [J/K/mol] | vapor or sublimation pressure
[1], 273.65 K, Crystal 1 | – | 0.000259 kPa
[1], 273.66 K, Crystal 1 | – | 0.000261 kPa
[1], 277.57 K, Crystal 1 | – | 0.000442 kPa
[1], 277.59 K, Crystal 1 | – | 0.000442 kPa
[1], 277.6 K, Crystal 1 | – | 0.00044 kPa
[1], 278.16 K, Crystal 1 | – | 0.00048 kPa and 0.000479 kPa and 0.000477 kPa
[1], 278.28 K, Metastable crystal | – | 0.000597 kPa and 0.000607 kPa
[1], 278.29 K, Metastable crystal | – | 0.00061 kPa
[1], 282.56 K, Crystal 1 | – | 0.000853 kPa
[1], 282.57 K, Crystal 1 | – | 0.000852 kPa
[1], 282.59 K, Crystal 1 | – | 0.000854 kPa
[1], 283.12 K, Metastable crystal | – | 0.00109 kPa
[1], 283.13 K, Metastable crystal | – | 0.0011 kPa and 0.001093 kPa
[1], 283.15 K, Crystal 1 | – | 0.000922 kPa
[1], 283.16 K, Crystal 1 | – | 0.000921 kPa and 0.000926 kPa
[1], 287.34 K, Crystal 1 | – | 0.001562 kPa
[1], 287.43 K, Crystal 1 | – | 0.001579 kPa
[1], 287.59 K, Crystal 1 | – | 0.001607 kPa
[1], 288.14 K, Metastable crystal | – | 0.002021 kPa and 0.00201 kPa
[1], 288.15 K, Metastable crystal | – | 0.00201 kPa
[1], 288.16 K, Crystal 1 | – | 0.001734 kPa and 0.001736 kPa
[1], 292.79 K, Crystal 1 | – | 0.003041 kPa
[1], 292.84 K, Crystal 1 | – | 0.003054 kPa
[1], 292.9 K, Crystal 1 | – | 0.003078 kPa
[1], 293.14 K, Crystal 1 | – | 0.003173 kPa and 0.00318 kPa
[1], 293.14 K, Metastable crystal | – | 0.003615 kPa and 0.003596 kPa and 0.003627 kPa
[1], 293.14 K, Metastable liquid | – | 0.003971 kPa and 0.003966 kPa and 0.003969 kPa
[1], 293.15 K, Crystal 1 | – | 0.003183 kPa
[1], 293.54 K, Metastable liquid | – | 0.00414 kPa and 0.004147 kPa
[1], 293.55 K, Metastable liquid | – | 0.004144 kPa
[1], 298.13 K, Metastable liquid | – | 0.006551 kPa
[1], 298.14 K, Metastable crystal | – | 0.00634 kPa and 0.006361 kPa and 0.006351 kPa
[1], 298.14 K, Metastable liquid | – | 0.006556 kPa and 0.00655 kPa
[1], 298.16 K, Crystal 1 | – | 0.005733 kPa [middle of 4 runs]
[1], 298.17 K, Crystal 1 | – | 0.005739 kPa
[1], 298.18 K, Crystal 1 | – | 0.005738 kPa
[1], 298.45 K, Metastable liquid | – | 0.006763 kPa
[1], 298.46 K, Metastable liquid | – | 0.00678 kPa
[1], 298.47 K, Metastable liquid | – | 0.006777 kPa
[1], 303.13 K, Metastable liquid | – | 0.01059 kPa
[1], 303.14 K, Crystal 1 | – | 0.01009 kPa and 0.0101 kPa
[1], 303.14 K, Metastable liquid | – | 0.0106 kPa
[1], 303.15 K, Crystal 1 | – | 0.0101 kPa
[1], 303.17 K, Crystal 1 | – | 0.01013 kPa
[1], 303.19 K, Crystal 1 | – | 0.01017 kPa
[1], 303.2 K, Crystal 1 | – | 0.01019 kPa
[1], 303.42 K, Metastable liquid | – | 0.01089 kPa and 0.01091 kPa
[1], 303.43 K, Metastable liquid | – | 0.01091 kPa
[1], 308.14 K, Liquid | – | 0.01683 kPa and 0.01682 kPa and 0.01681 kPa
[1], 308.42 K, Liquid | – | 0.01728 kPa
[1], 308.43 K, Liquid | – | 0.01728 kPa and 0.01729 kPa
[1], 313.42 K, Liquid | – | 0.0268 kPa
[1], 313.43 K, Liquid | – | 0.02682 kPa
[1], 313.44 K, Liquid | – | 0.02686 kPa
[1], 318.39 K, Liquid | – | 0.04089 kPa
[1], 318.4 K, Liquid | – | 0.04092 kPa
[1], 318.42 K, Liquid | – | 0.041 kPa
[1], 323.41 K, Liquid | – | 0.06149 kPa and 0.06146 kPa
[1], 328.43 K, Liquid | – | 0.09086 kPa
[1], 333.43 K, Liquid | – | 0.1322 kPa
[1], 333.44 K, Liquid | – | 0.1323 kPa
[1], 338.35 K, Liquid | – | 0.188 kPa
[1], 338.36 K, Liquid | – | 0.188 kPa
[1], 343.2 K, Liquid | – | 0.2626 kPa
[1], 343.21 K, Liquid | – | 0.2628 kPa
[1], 348.1 K, Liquid | – | 0.3638 kPa
[1], 348.11 K, Liquid | – | 0.3638 kPa
[1], 353.03 K, Liquid | – | 0.4979 kPa
[1], 362.97 K, Liquid | – | 0.9031 kPa
[2], 265 K, Crystal 1 | 217.6 | –
[2], 270 K, Crystal 1 | 221.3 | –
[2], 270 K, Metastable crystal | 217.5 | –
[2], 275 K, Crystal 1 | 225.3 | –
[2], 275 K, Metastable crystal | 219.5 | –
[2], 280 K, Crystal 1 | 229.5 | –
[2], 280 K, Metastable crystal | 223.1 | –
[2], 285 K, Crystal 1 | 234.2 | –
[2], 285 K, Metastable crystal | 229 | –
[2], 315.4 K, Liquid | 377.3 | –
[2], 320 K, Liquid | 384.2 | –
[2], 325 K, Liquid | 392 | –
[2], 330 K, Liquid | 399.8 | –
[2], 335 K, Liquid | 406.9 | –
[2], 340 K, Liquid | 412.7 | –
[2], 345 K, Liquid | 418.1 | –
[2], 350 K, Liquid | 423.7 | –
[2], 355 K, Liquid | 429 | –

Conditions | Molar enthalpy of transition or fusion, [3] [kcal/mol] | Triple point temperature, [1] [K]
Crystal 1 | 3.27 | 305.7
Metastable crystal | 2.37 | 300.7

— the NIST ThermoML archive (doi:10.1016/j.jct.2018.11.004)
